Source: PMC8708274, “Unveiling the Membrane and Cell Wall Action of Antimicrobial Cyclic Lipopeptides: Modulation of the Spectrum of Activity” (Pharmaceutics, 2021)
Read-outs that look alike come from different tables or passages of the source. Positions of bridges follow the written chain, without caps; N, C: chain ends. Non-standard residues stand in square brackets, D forms with d. Residues, ends and D or L forms follow the SMILES beside them. No end group written: not given here. *: point of attachment. Lauroyl = CCCCCCCCCCCC(=O)*; Decanoyl = CCCCCCCCCC(=O)*; X1 = CC[C@H](C)CCCCC(=O)*; Nle = CCCC[C@H](N)C(=O)O; Dab = NCC[C@H](N)C(=O)O

How the values were obtained:
[1] = Kinetics of insertion into monolayers; assay type: binding, Salmonella enterica serotype Minnesota Re 595; details: initial pressure 32 mN·m^−1, peptide 0.48 μM, 25 min after injection, 10 mM Tris pH 7.4, 25 °C, average of three independent experiments (error < 10%)
Procedure: (§1) Monolayer studies were performed at room temperature (25 °C) on a monolayer system (NIMA Technology, Coventry, UK) by using a cylindrical PTFE (Teflon®, Wilmington, DE, USA) trough (5 cm diameter) containing a continuously stirred aqueous phase (12 mL, 10 mM Tris pH 7.4) and a Wilhelmy platinum plate connected to an electrobalance. The system was enclosed in a Plexiglass box to reduce surface contamination, and before each run, the plate and the trough were cleaned with hot water at >70 °C to avoid carryover of lipid or peptide. Monolayers of POPG, POPE/POPG (6:4), POPC, or LPS were formed by applying small drops of the lipid stock solutions in CHCl3 on the aqueous subphase with a microsyringe (Hamilton Co., Reno, NV, USA) to achieve a surface pressure of 32 mN·m^−1. After 10 min, allowing for solvent evaporation, a known aliquot of peptide was added without disturbance of the monolayer via an inlet port, and the surface pressure was continuously monitored.

[2] = system: fresh rabbit erythrocytes; assay: Hemolysis assay; assay type: cell-based; details: 335 μM lipopeptide, 1 h at 37 °C, 10 mM Tris 80 mM NaCl pH 7.4, absorbance 540 nm, average of three independent experiments
Procedure: Hemolytic activity was evaluated on fresh rabbit erythrocytes collected in EDTA collection tubes, as previously described. Briefly, an erythrocite suspension in buffer (10 mM Tris, 80 mM NaCl pH 7.4) was obtained by centrifugation (three times, 10 min at 4000 rpm) and adjusted at an optical density of 1 at 540 nm. Aliquots of 200 µL were incubated for 1 h at 37 °C with the different lipopeptides in 96-well polypropylene microtiter plates and centrifuged (15 min, 5000 rpm). Lipopetide-induced hemolysis was determined by measuring the absorbance at 540 nm of released hemoglobin (Asample) in the supernatant. Each determination was done by triplicate, and as negative and positive controls, erythrocytes in buffer (A0%) and in distilled water (A100%) were employed, respectively. Hemolysis was calculated according the following equation: % hemolysis = 100 · (Asample − A0%/A100% − A0%).

[3] = Kinetics of insertion into monolayers; assay type: binding; details: 25 min after injection, 10 mM Tris pH 7.4, 25 °C, average of three independent experiments (error < 10%); for Increase in surface pressure (Δπ), POPE/POPG: POPE/POPG 6:4, initial pressure 32 mN·m^−1, peptide 0.48 μM; for Increase in surface pressure (Δπ), POPC / Increase in surface pressure (Δπ), POPG: initial pressure 32 mN·m^−1, peptide 0.48 μM
Procedure: as §1

[4] = system: Pseudomonas aeruginosa ATTC 27853; assay type: cell-based; details: broth microdilution, MHB, overnight 37 °C, triplicate
Procedure: (§2) The minimal peptide concentration required to prevent the growth of a given test organism was determined after incubation overnight at 37 °C and was defined as the MIC. Activity was determined in representative bacteria, Escherichia coli ATTC 25922, Pseudomonas aeruginosa ATTC 27853, and Staphylococcus aureus ATTC 25923, using the broth microdilution method. Serial-two-fold dilutions of peptide (from 0.06 to 32 μg/mL) were performed in Mueller–Hinton broth (MHB) culture medium in sterile 96-well polypropylene microtiter plates inoculated with a final concentration of 5 × 10^5 CFU·mL^−1 of bacteria in each well. Bacteria were in the pre-exponential phase. Each determination was done by triplicate. In order to be considered acceptable, the three MIC results have to differ in only in one well, and the result was always given as the higher of the three. Drug-free and microorganism-free wells were used as positive and negative controls, respectively. Bacterial growth was visually determined on the basis of turbidity.

[5] = system: Staphylococcus aureus ATTC 25923; assay type: cell-based; details: broth microdilution, MHB, overnight 37 °C, triplicate
Procedure: as §2

[6] = system: Escherichia coli ATTC 25922; assay type: cell-based; details: broth microdilution, MHB, overnight 37 °C, triplicate
Procedure: as §2

[7] = system: E. coli; assay: Transmission electron microscopy of treated bacteria; assay type: cell-based, Escherichia coli; details: 1xMIC, 2 h, room temperature, tryptone water
Procedure: (§3) Then, 500 µL of this culture were added to 50 mL of tryptone water for a concentration of ≈10^8 bacteria·mL^−1. Aliquots of 10 mL were incubated with the lipopeptide at the desired concentration for 2 h at room temperature, and bacterial cells were collected by centrifugation (12,857 g, 20 min). Samples were fixed with 2.5% glutaraldehyde in phosphate buffer for 2 h at 4 °C, washed with the same buffer, and post fixed with 1% osmium tetroxide in buffer containing 0.8% potassium ferricyanide at 4 °C. Then, the samples were dehydrated for 1 h in acetone, infiltrated in a graded series of Epon resin (Ted pella, Inc., Redding, CA, USA) during 2 days, and finally embedded in fresh Epon resin and polymerized at 60 °C during 48 h. Ultrathin sections were obtained using a Leica Ultracut UCT ultramicrotome (Leica, Vienna, Austria) and mounted on Formvar-coated copper grids. Sections were stained with 2% aqueous uranyl acetate and lead citrate and examined in a JEM-1010 electron microscope (Jeol, Tokyo, Japan).

[8] = system: Staphylococcus aureus ATTC 25923; details: cited from earlier work
Procedure: C6 analogues are devoid of antibacterial effect both against Gram-positive and Gram-negative bacteria, with MICs higher than 32 μg·mL^−1. C8 analogues show some activity, especially against P. aeruginosa but not on Gram-positive S. aureus. […] For example, MIC of 4 μg·mL^−1 and 2 μg·mL^−1 against P. aeruginosa for spB-3 and spE-3 respectively are obtained, where ... || Since some of the polymyxin analogues also have good activities against S. aureus, the effects on the cell morphology of this Gram-positive bacteria were determined.

[9] = system: Pseudomonas aeruginosa ATTC 27853; details: cited from earlier work
Procedure: C6 analogues are devoid of antibacterial effect both against Gram-positive and Gram-negative bacteria, with MICs higher than 32 μg·mL^−1. C8 analogues show some activity, especially against P. aeruginosa but not on Gram-positive S. aureus. […] For example, MIC of 4 μg·mL^−1 and 2 μg·mL^−1 against P. aeruginosa for spB-3 and spE-3 respectively are obtained, where ... || Figure 3 Comparative TEM micrographs of P. aeruginosa (left) and E. coli (right). Untreated bacteria (a,b); bacteria treated with polymyxin analogues at 1xMIC: P. aeruginosa with spB-3 (4 μg·mL^−1) (c), or with of spE-10 (1 μg·mL^−1) (e); E. coli treated with spB-3 (2 μg·mL^−1) (d) or spE-10 (8 μg·mL^−1) (f). Lipopeptides cause the alteration of the membranes, with blebs protruding, loss of membrane, clear cytoplasmic zones, and even ghost cells. Similar results are obtained with natural PxB ((g,h), this last one is adapted from (Rabanal et al. Sci. Rep. 2015).

[10] = system: S. aureus; assay: Transmission electron microscopy of treated bacteria; assay type: cell-based, Staphylococcus aureus; details: 1xMIC, 120 min, tryptone water
Procedure: as §3

[11] = system: P. aeruginosa; assay: as above; assay type: cell-based, Pseudomonas aeruginosa; details: 1xMIC, 2 h, room temperature, tryptone water
Procedure: as §3

[12] = system: Escherichia coli ATTC 25922; details: cited from earlier work
Procedure: Table 1 Sequences and antimicrobial activities of the synthesized peptides determined as minimal inhibitory concentration (MIC) calculated for different bacteria strains. | column: MIC/µg mL^−1 (µM) / EC ^1 || Figure 3 Comparative TEM micrographs of P. aeruginosa (left) and E. coli (right). Untreated bacteria (a,b); bacteria treated with polymyxin analogues at 1xMIC: P. aeruginosa with spB-3 (4 μg·mL^−1) (c), or with of spE-10 (1 μg·mL^−1) (e); E. coli treated with spB-3 (2 μg·mL^−1) (d) or spE-10 (8 μg·mL^−1) (f). Lipopeptides cause the alteration of the membranes, with blebs protruding, loss of membrane, clear cytoplasmic zones, and even ghost cells. Similar results are obtained with natural PxB ((g,h), this last one is adapted from (Rabanal et al. Sci. Rep. 2015).

[13] = 5 × 10^5 CFU/mL, higher of the three
[14] = taken from the literature (analogues #37, #38, #39)
[15] = value in brackets, taken from the literature

Molecule | Increase in surface pressure (Δπ), LPS [1] | hemolysis [2] | Increase in surface pressure (Δπ), POPE/POPG [3] | Increase in surface pressure (Δπ), POPC [3] | Increase in surface pressure (Δπ), POPG [3] | MIC PA [4, 13] | MIC PA ([4]; value in brackets) | MIC SA [5, 13] | MIC SA ([5]; value in brackets) | MIC EC [6, 13] | MIC EC ([6]; value in brackets) | ultrastructural effect on E. coli (TEM) [7] | MIC SA [8, 14] | MIC SA [8, 15] | MIC PA [9, 14] | MIC PA [9, 15] | ultrastructural effect on S. aureus (TEM) [10] | ultrastructural effect on P. aeruginosa (TEM) [11] | MIC EC [12, 14] | MIC EC [12, 15]
CC[C@H](C)CCCCC(=O)N[C@@H](CCN)C(=O)N[C@H](C(=O)N[C@@H](CCN)C(=O)N[C@H]1CCNC(=O)[C@H]([C@@H](C)O)NC(=O)[C@H](CCN)NC(=O)[C@H](CCN)NC(=O)[C@H](CC(C)C)NC(=O)[C@@H](Cc2ccccc2)NC(=O)[C@H](CCN)NC1=O)[C@@H](C)O [PxB, Polymyxin B, reference compound] (X1-[Dab]T[Dab][Dab][Dab][dF]L[Dab][Dab]T; lactam 4-C) | 11.4 mN·m^−1 | 18% | 7.2 mN·m^−1 | 1.4 mN·m^−1 | 5.9 mN·m^−1 | 0.5 µg/mL | 0.42 µM | > 32 µg/mL | > 27 µM | 1 µg/mL | 0.83 µM | – | – | – | – | – | – | – | – | –
Decanoyl-[Dab]T[Dab]C[Dab]FL[Dab][Dab]C (disulfide 4-10 (inferred)) [spB-3, the C10 analogue of PxB] | 11.0 mN·m^−1 | – | 6.0 mN·m^−1 | 2.0 mN·m^−1 | 6.2 mN·m^−1 | – | – | – | – | – | – | extensive bleb formation | 8 µg/mL | 6.5 µM | 4 µg/mL | 3.2 µM | formation of spherical mesosome-like intracellular structures and membranous inclusion bodies together with deformation of the cell envelope | formation of blebs that protrude from the outer membrane | 2 µg/mL | 1.6 µM
Decanoyl-[Dab]T[Dab]C[Dab]F[Nle][Dab][Dab]C (disulfide 4-10 (inferred)) [spB-7, Series II-PxB analogue, decanoyl, Nle in position 7] | 9.3 mN·m^−1 | – | 6.5 mN·m^−1 | 2.1 mN·m^−1 | 4.2 mN·m^−1 | – | – | – | – | – | – | – | 4 µg/mL | 3.2 µM | 1 µg/mL | 0.81 µM | – | – | 2 µg/mL | 1.6 µM
Lauroyl-[Dab]T[Dab]C[Dab]F[Nle][Dab][Dab]C (disulfide 4-10 (inferred)) [spB-8, the C12/Nle7 derivative] | 11.2 mN·m^−1 | – | 6.2 mN·m^−1 | 1.7 mN·m^−1 | 3.8 mN·m^−1 | – | – | – | – | – | – | – | 2 µg/mL | 1.58 µM | 1 µg/mL | 0.79 µM | Even more disruptive effects | – | 4 µg/mL | 3.2 µM
